Test results published in paper PMC9463526 (Journal of Pharmaceutical Analysis, 2022).
Like-named read-outs stand apart in the source and are kept apart here.

Assays:
[1] = Analyte stability in human plasma; format: physicochemical; conditions: for Freeze-thaw stability, Accuracy / Freeze-thaw stability, Mean concentration / Freeze-thaw stability, Difference: 3 cycles; for Freeze-thaw stability, Difference / Benchtop stability, Difference / Processed sample stability, Difference / Autosampler stability (5 °C), Difference / Long-term stability (−20 °C), Difference: vs freshly processed QC; for Benchtop stability, Accuracy / Benchtop stability, Mean concentration / Benchtop stability, Difference: 19 h; for Processed sample stability, Accuracy / Processed sample stability, Mean concentration / Processed sample stability, Difference: 23 h; for Autosampler stability (5 °C), Accuracy / Autosampler stability (5 °C), Mean concentration / Autosampler stability (5 °C), Difference: 112 h; for Long-term stability (−20 °C), Accuracy / Long-term stability (−20 °C), Mean concentration / Long-term stability (−20 °C), Difference: 27 days
Experimental: (§1) The stability of the analytes was studied under various storage and processing conditions. […] Short- and long-term stability studies of all analytes were conducted in human blank plasma and brain homogenate under several storage conditions. Analyte stability in biological matrices was analyzed using freshly prepared calibration standards and QC samples. The percentage difference between the stability and freshly processed QC was also assessed. Re-injection reproducibility was evaluated within the sample stability period in the autosampler. Analytes were considered stable if the accuracy at each level was ±15.0% of the nominal value. Additionally, the difference from corresponding comparison QC samples must be within ±15.0%.

[2] = Equilibrium dialysis, fraction unbound in plasma; format: in vitro ADME, human; conditions: for fraction unbound at 16 h: pH 7.4, 16 h equilibrium dialysis
Experimental: (§2) Equilibrium dialysis was employed to measure the fraction unbound of analytes in plasma, brain, and brain tumor tissue homogenates using 96-well DispoEquilibrium Dialyzer plates with a 10 kDa cut-off regenerated cellulose membrane. Dialysis was performed using 180 μL of human plasma or tissue homogenate against an equal volume of PBS (pH 7.4) in a dual-plate rotator (Harvard Apparatus, Holliston, MA, USA). Equilibrium time was initially optimized by analyzing samples after 2, 4, 6, 8, 16, and 24 h of dialysis at concentrations of 20 and 200 nM in human plasma and brain homogenate. The dialysates were collected and processed as described in Sections 2.3.2 and 2.3.3. The recovery of analytes was calculated as the ratio of analyte concentration after dialysis (sum of concentrations found in PBS and matrix fractions) to the total concentration to ensure the reliability and reproducibility of the assay. The experiments were repeated at least three times, and each sample in triplicate and average fraction unbound values were determined.
(§3) The fraction unbound in plasma (fu, plasma) and tissue homogenate (fu, hom) was evaluated as the analyte concentration ratio of post-dialysis PBS (cu) to post-dialysis plasma (cp, Eq. (1)) or homogenate (chom, Eq. (2)).(1) fu,plasma =cu/cp (2) fu,hom =cu/chom
Unbound drug levels in the actual plasma and brain tumor tissue were measured using dialysis for 16 h to reach equilibrium. The mean of fraction unbound values determined in five patient samples was calculated.

[3] = Analyte stability in brain homogenate; format: physicochemical, human; conditions: for Freeze-thaw stability, Accuracy / Freeze-thaw stability, Mean concentration / Freeze-thaw stability, Difference: 3 cycles; for Freeze-thaw stability, Difference / Benchtop stability, Difference / Processed sample stability, Difference / Autosampler stability (5 °C), Difference / Long-term stability (−20 °C), Difference: vs freshly processed QC; for Benchtop stability, Accuracy / Benchtop stability, Mean concentration / Benchtop stability, Difference: 6 h; for Processed sample stability, Accuracy / Processed sample stability, Mean concentration / Processed sample stability, Difference: 22 h; for Autosampler stability (5 °C), Accuracy / Autosampler stability (5 °C), Mean concentration / Autosampler stability (5 °C), Difference: 96 h
Experimental: as §1

[4] = Equilibrium dialysis, fraction unbound in brain homogenate; format: in vitro ADME, human
Experimental: as §2, §3
The fraction unbound in the actual tissue (fu, tissue) was obtained by incorporating the unbound fraction in the tissue homogenate (fu, hom) and the dilution factor (Df) into Eq. (3).(3) fu,tissue = fu,hom/[Df - (Df - 1)fu,hom]

[5] = Levels in intraoperatively collected CSF of GBM patients; format: in vivo; conditions: human, po, five GBM patients, oral LY3214996 200 mg once daily and abemaciclib 150 mg twice daily for 5 days, intraoperative CSF
Experimental: Blank brain and clinical brain tumor tissue homogenates were prepared at 1:9 (m/V) ratio with PBS. The samples were homogenized at a speed of 6.00 m/s for 40 s for three cycles using a Bead Ruptor Elite homogenizer (Omni International, Kennesaw, GA, USA). Plasma was used as a surrogate matrix when preparing calibration curves for brain and brain tumor homogenates and CSF as well as for the PBS fraction after sample dialysis. To minimize matrix differences, all plasma samples were spiked with PBS, while all non-plasma samples were spiked with plasma. Extraction of the analyte and IS was facilitated by protein precipitation using methanol-containing IS precipitation solution. Samples (70 μL) spiked with PBS or plasma were precipitated using 400 μL of IS precipitation solution. After centrifugation at 12,000 r/min for 10 min at 4 °C, the supernatant was transferred for LC-MS/MS analysis.
The validated bioanalytical method was employed to investigate analytes pharmacokinetics in the plasma, brain tumor, and CSF in GBM patients (ClinicalTrials.gov identifier: NCT04391595). The protocol was reviewed and approved by the Institutional Review Board of the Barrow Neurological Institute, St. Joseph's Hospital and Medical Center (Phoenix, AZ, USA). All patients enrolled in the trial provided written informed consent. […] Blood, CSF, and GBM tissue (including gadolinium-contrast enhancing and non-enhancing regions) samples were obtained intra-operatively from each patient on the […] on the planned operation day. Blood was centrifuged at 4 °C and 3,000 r/min for 10 min; plasma was subsequently collected. Brain tumors were resected 7–9 h after the last dose was administered. Once resected, the tissue samples were rinsed with PBS, paper dried, and freshly frozen in liquid nitrogen. The samples were then stored at −80 °C in a freezer for later analysis.

## Cn1nccc1Nc1nccc(-c2cc3c(s2)C(C)(C)N(CCN2CCOCC2)C3=O)n1 [LY3214996]
[1]; HQC 400.0 nM
  Freeze-thaw stability, Accuracy: 100.6%
  Freeze-thaw stability, Mean concentration: 402.5 nM
  Freeze-thaw stability, Difference: 3.2%
  Benchtop stability, Accuracy: 102.3%
  Benchtop stability, Mean concentration: 409.3 nM
  Benchtop stability, Difference: 2.8%
  Processed sample stability, Accuracy: 97.7%
  Processed sample stability, Mean concentration: 390.7 nM
  Processed sample stability, Difference: 2.2%
  Autosampler stability (5 °C), Accuracy: 95.4%
  Autosampler stability (5 °C), Mean concentration: 381.8 nM
  Autosampler stability (5 °C), Difference: 1.5%
  Long-term stability (−20 °C), Accuracy: 104.5%
  Long-term stability (−20 °C), Mean concentration: 418.1 nM
  Long-term stability (−20 °C), Difference: 3.4%
[1]; LQC 0.6 nM
  Freeze-thaw stability, Accuracy: 101.0%
  Freeze-thaw stability, Mean concentration: 0.606 nM
  Freeze-thaw stability, Difference: 5.3%
  Benchtop stability, Accuracy: 97.7%
  Benchtop stability, Mean concentration: 0.586 nM
  Benchtop stability, Difference: 3.2%
  Processed sample stability, Accuracy: 91.1%
  Processed sample stability, Mean concentration: 0.547 nM
  Processed sample stability, Difference: −3.4%
  Autosampler stability (5 °C), Accuracy: 92.5%
  Autosampler stability (5 °C), Mean concentration: 0.555 nM
  Autosampler stability (5 °C), Difference: 3.1%
  Long-term stability (−20 °C), Accuracy: 101.5%
  Long-term stability (−20 °C), Mean concentration: 0.609 nM
  Long-term stability (−20 °C), Difference: −2.2%
[2]; human, plasma of five GBM patients, read-out: Fraction unbound (fu), Plasma (patients)
  fraction unbound at 16 h: 0.406
[2]; pooled human plasma spiked at 20 and 200 nM, read-out: Fraction unbound (fu), Plasma (pooled)
  fraction unbound at 16 h: 0.372
[2]; pooled human plasma
  Plasma protein binding (in words): modest plasma protein binding
[3]; HQC 400.0 nM
  Freeze-thaw stability, Accuracy: 103.2%
  Freeze-thaw stability, Mean concentration: 412.9 nM
  Freeze-thaw stability, Difference: 1.1%
  Benchtop stability, Accuracy: 101.7%
  Benchtop stability, Mean concentration: 406.7 nM
  Benchtop stability, Difference: −1.5%
  Processed sample stability, Accuracy: 102.3%
  Processed sample stability, Mean concentration: 409.3 nM
  Processed sample stability, Difference: −0.9%
  Autosampler stability (5 °C), Accuracy: 105.2%
  Autosampler stability (5 °C), Mean concentration: 420.9 nM
  Autosampler stability (5 °C), Difference: 3.3%
[3]; LQC 0.6 nM
  Freeze-thaw stability, Accuracy: 101.4%
  Freeze-thaw stability, Mean concentration: 0.608 nM
  Freeze-thaw stability, Difference: −7.9%
  Benchtop stability, Accuracy: 110.2%
  Benchtop stability, Mean concentration: 0.661 nM
  Benchtop stability, Difference: 0.2%
  Processed sample stability, Accuracy: 112.3%
  Processed sample stability, Mean concentration: 0.674 nM
  Processed sample stability, Difference: 2.1%
  Autosampler stability (5 °C), Accuracy: 111.2%
  Autosampler stability (5 °C), Mean concentration: 0.667 nM
  Autosampler stability (5 °C), Difference: 4.4%
[3]; 39 days, HQC 400.0 nM
  Long-term stability (−20 °C), Mean concentration: 422.7 nM
  Long-term stability (−20 °C), Difference: 3.5%
[3]; 39 days, LQC 0.6 nM
  Long-term stability (−20 °C), Accuracy: 103.6%
  Long-term stability (−20 °C), Mean concentration: 0.622 nM
  Long-term stability (−20 °C), Difference: −5.9%
[4]; pH 7.4, human brain homogenate spiked at 20 and 200 nM, 16 h equilibrium dialysis, read-out: Fraction unbound (fu), Brain
  fraction unbound at 16 h: 0.065
[4]; spiked pooled human plasma vs human brain homogenate
  Plasma protein binding compared to binding to brain tissue components (ratio): at least 5.5 fold
[5]; read-out: Level in CSF (range)
  concentration at 6 day (intra-operative): 49.7 to 118 nM
[5]; read-out: Median level in CSF
  concentration at 6 day (intra-operative): 95.5 nM
